Experimental findings from ChEMBL document CHEMBL1201862, “PubChem BioAssay data set” (2004) are described below.

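Assay format: 96-well plates, 48-hour exposure. GI50 is the concentration that inhibits growth by half.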 Calls of active or inactive are those of the source. No stated cut-off is given here; in the data, active = GI50 up to about 1.1 µM and inactive = higher.

Among the test systems are A549; BT-549; DU-145; EKVX; LOX IMVI; MOLT-4; NCI/ADR-RES; RXF 393; SF-295; SF-539; SNB-19; T47D; UACC-257; UACC-62; UO-31; SK-MEL-28; Hs-578T.
What all share (test): DTP human tumour cell line panel, 48 h

On to `CC(C)(C)OC(=O)NC(Cc1ccccc1)C(=O)N[C@H]1c2ccsc2/C(=N/O)[C@H]1O` (stereo partly drawn), for which the GI50 is > 100 µM (inactive) in the test with A549; > 100 µM (inactive) in the test with BT-549; > 100 µM (inactive) in the test on DU-145; > 100 µM (inactive) in the test with EKVX; > 100 µM (inactive) in the test on LOX IMVI; 83 µM (inactive) in the test on MOLT-4. Moreover, the GI50 in the test with NCI/ADR-RES, with RXF 393, in the test on SF-295, in the test on SF-539, in the test on SNB-19 and in the test on T47D was > 100 µM (inactive) each time. Moreover, the GI50 in the test with UACC-257, in the test with UACC-62 and in the test with UO-31 was > 100 µM (inactive) throughout.
In the case of `COC(=O)c1cc2c3c(cc(N(C)C)c2[nH]1)N(C(=O)c1cc2cc(OC)c(OC)c(OC)c2[nH]1)CC3CCl` (stereo not drawn), the GI50 with A549 is 0.00292 µM (active); in the test on BT-549, 0.018 µM (active); in the test with DU-145, < 0.0025 µM (active); in the test on EKVX it was 0.0146 µM (active); in the test on MOLT-4 it was < 0.0025 µM (active); with NCI/ADR-RES, 0.00392 µM (active). Also, the GI50 is < 0.0025 µM (active) in the test with RXF 393; 0.00379 µM (active) in the test on SF-295; 0.00653 µM (active) with SF-539; 0.00641 µM (active) with SK-MEL-28; 0.00775 µM (active) in the test with SNB-19; < 0.0025 µM (active) in the test with T47D. The GI50 with UACC-257 was 0.00476 µM (active); with UACC-62 it was 0.00558 µM (active); in the test with UO-31 it was 0.00316 µM (active).
For the compound `CCCCNC(=O)OCCN=C1c2ccccc2C(Br)C(Br)c2ccccc21` (stereo not drawn), the GI50 with A549 is 83.9 µM (inactive); in the test with DU-145 it was 41.3 µM (inactive); in the test on EKVX, 20.3 µM (inactive); in the test with Hs-578T, 36.1 µM (inactive); with LOX IMVI it was 20 µM (inactive); with MOLT-4, 24.9 µM (inactive). The GI50 in the test with NCI/ADR-RES is 19.9 µM (inactive); in the test on RXF 393 it was 14.3 µM (inactive); in the test with SF-295, 87.7 µM (inactive); in the test with SF-539 it was 29.9 µM (inactive); in the test on SK-MEL-28, 35.4 µM (inactive); with SNB-19, 24.9 µM (inactive). For the same compound, the GI50 is 33.8 µM (inactive) in the test on T47D, 26.8 µM (inactive) in the test with UACC-257 and > 100 µM (inactive) in the test with UACC-62.
In the case of `O=C(Nc1ccn(C2CC(O)C(COC(c3ccccc3)(c3ccccc3)c3ccccc3)O2)c(=O)n1)c1ccccc1` (stereo not drawn), the GI50 was 4.54 µM (inactive) in the test on A549; 5.61 µM (inactive) in the test with DU-145; 4.27 µM (inactive) with EKVX; 2.31 µM (inactive) in the test on Hs-578T; 2.16 µM (inactive) in the test with MOLT-4; 2.46 µM (inactive) with NCI/ADR-RES. Also, the GI50 in the test with RXF 393 was 2.7 µM (inactive); in the test with SF-295, 1.96 µM (inactive); in the test on SF-539, 3.36 µM (inactive); in the test on SK-MEL-28, 3.08 µM (inactive); in the test with SNB-19, 3.77 µM (inactive); in the test on T47D, 4.46 µM (inactive). Moreover, the GI50 was 12.7 µM (inactive) with UACC-257, 5.98 µM (inactive) with UACC-62 and 6.81 µM (inactive) in the test with UO-31.
With `CCOC(=O)C(NC(=O)c1cccc(Cl)c1)(Nc1ccc(S(=O)(=O)Nc2cc(C)on2)cc1)C(F)(F)F` (stereo not drawn), the GI50 in the test on A549, with DU-145, in the test with EKVX, in the test with Hs-578T, in the test on LOX IMVI and in the test with MOLT-4 was > 100 µM (inactive) each time. In addition, the GI50 was > 100 µM (inactive) in the test on NCI/ADR-RES; 42.5 µM (inactive) with RXF 393; 14.4 µM (inactive) with SF-295; > 100 µM (inactive) in the test with SF-539; > 100 µM (inactive) in the test with SK-MEL-28; > 100 µM (inactive) in the test on SNB-19. Besides, the GI50 in the test with T47D, in the test on UACC-257 and in the test on UO-31 was > 100 µM (inactive) in each case.
For `CC(C)=CC(O)C(C(O)CCC1(C)OCCO1)S(=O)(=O)c1ccccc1` (stereo not drawn), the GI50 in the test on A549, in the test on BT-549, with EKVX, in the test with LOX IMVI, with NCI/ADR-RES and in the test on RXF 393 was > 100 µM (inactive) throughout. The GI50 with SF-295, with SF-539, with SK-MEL-28, in the test on SNB-19, in the test on T47D and with UACC-257 was > 100 µM (inactive) in each case. Also, the GI50 with UO-31 was > 100 µM (inactive).
Consider `COc1ccc(/C=C2/SC(c3ccccc3)N(NC(=O)CCCCCCCCC(=O)NN3C(=O)/C(=C\c4ccc(OC)c(OC)c4)SC3c3ccccc3)C2=O)cc1OC` (stereo not drawn), for which the GI50 in the test on A549 was > 100 µM (inactive); in the test with BT-549 it was > 100 µM (inactive); in the test on DU-145, > 100 µM (inactive); in the test with EKVX, 17.1 µM (inactive); in the test with MOLT-4 it was 19.7 µM (inactive); in the test on NCI/ADR-RES, 60.3 µM (inactive). The GI50 with RXF 393 was 58.5 µM (inactive); in the test on SF-295, 24.2 µM (inactive); with SF-539, 24.6 µM (inactive); with SK-MEL-28 it was 48 µM (inactive); in the test on SNB-19 it was 86.1 µM (inactive); in the test on T47D, 35.6 µM (inactive). Moreover, the GI50 is 39.4 µM (inactive) with UACC-257, 29 µM (inactive) in the test with UACC-62 and 58.2 µM (inactive) in the test with UO-31.
Turning to `O=C1OC(=O)c2c1cc1cc3c(cc1c2-c1ccc2c(c1)OCO2)OCO3`, the GI50 with A549, with BT-549, in the test with DU-145, in the test with MOLT-4, with NCI/ADR-RES and with RXF 393 was > 100 µM (inactive) in each case. Besides, the GI50 in the test on SF-295, in the test with SF-539, with SK-MEL-28, with SNB-19, with T47D and with UACC-257 was > 100 µM (inactive) in each case. Besides, the GI50 with UACC-62 and in the test on UO-31 was > 100 µM (inactive) throughout.
Turning to `CC(=O)c1cc2sc3ccccc3c2[nH]1`, the GI50 with A549, with DU-145, with MOLT-4, in the test on NCI/ADR-RES, with RXF 393 and with SF-295 was > 100 µM (inactive) each time. Also, the GI50 in the test on SF-539 was > 100 µM (inactive); in the test with SK-MEL-28 it was > 100 µM (inactive); in the test on SNB-19, > 100 µM (inactive); in the test with T47D it was > 100 µM (inactive); in the test with UACC-62, 26.7 µM (inactive); in the test on UO-31 it was 56.4 µM (inactive).
With `OCC1COc2cc(Cl)c(Cl)cc2O1` (stereo not drawn), the GI50 with A549, with DU-145, in the test on EKVX, in the test with Hs-578T, with LOX IMVI and in the test with MOLT-4 was > 10 µM (inactive) each time. Besides, the GI50 in the test on NCI/ADR-RES, in the test on RXF 393, with SF-295, in the test on SF-539, with SK-MEL-28 and with SNB-19 was > 10 µM (inactive) throughout. In addition, the GI50 in the test on T47D, in the test with UACC-62 and with UO-31 was > 10 µM (inactive) each time.
As to `N#CC(=S)Nc1ccc(F)cc1`, the GI50 with A549 is 33.6 µM (inactive); in the test with BT-549, 32.6 µM (inactive); in the test on DU-145, 86.7 µM (inactive); with EKVX, 72.3 µM (inactive); in the test on LOX IMVI it was 30.8 µM (inactive); in the test on MOLT-4, 31.3 µM (inactive). Also, the GI50 is 34.2 µM (inactive) in the test on NCI/ADR-RES; 42.1 µM (inactive) in the test on RXF 393; 51.6 µM (inactive) with SF-295; 38.2 µM (inactive) in the test on SF-539; 45.5 µM (inactive) with SK-MEL-28; > 100 µM (inactive) in the test on SNB-19. The GI50 is 24 µM (inactive) in the test on T47D, 30.6 µM (inactive) in the test on UACC-257 and 40.2 µM (inactive) in the test on UACC-62.
For the compound `COC(CC1(/C=C/O[Si](C(C)C)(C(C)C)C(C)C)C(=O)N(COCC[Si](C)(C)C)c2ccccc21)OC` (stereo not drawn), the GI50 is 36.3 µM (inactive) with A549; > 100 µM (inactive) in the test on DU-145; > 100 µM (inactive) with Hs-578T; 20.8 µM (inactive) in the test with LOX IMVI; 22.1 µM (inactive) with MOLT-4; > 100 µM (inactive) in the test with NCI/ADR-RES. Further, the GI50 in the test with RXF 393 is 3.9 µM (inactive); in the test on SF-295 it was 7.96 µM (inactive); with SF-539 it was 15.1 µM (inactive); in the test on SK-MEL-28 it was 16.6 µM (inactive); with SNB-19, 33.7 µM (inactive); with T47D, > 100 µM (inactive). For the same compound, the results for the GI50 with UACC-257, in the test with UACC-62 and in the test with UO-31 were 25.5 µM (inactive), 18.8 µM (inactive) and 76 µM (inactive), respectively.
For `CCOc1cc(C=O)ccc1O` [ETHYL VANILLIN], the GI50 in the test with A549, with DU-145, in the test on EKVX, with Hs-578T, in the test with LOX IMVI and in the test with MOLT-4 was > 100 µM (inactive) in each case. Besides, the GI50 in the test with NCI/ADR-RES, with SF-295, in the test with SF-539, in the test on SK-MEL-28, with SNB-19 and with T47D was > 100 µM (inactive) throughout. For the same compound, the GI50 in the test on UACC-257 and in the test on UO-31 was > 100 µM (inactive) each time.

The GI50 is the concentration that inhibits growth by half.
